The text below walks through data of ChEMBL document CHEMBL3351519, “Synthetic studies on mitotic kinesin Eg5 inhibitors: synthesis and structure-activity relationships of novel 2,4,5-substituted-1,3,4-thiadiazoline derivatives” (Bioorg Med Chem Lett, 2014).

The subject of one data set is HCT-116. Description: Induction of mitotic accumulation in human HCT116 cells Hoechst 33342 staining based by fluorescence microscopy. It counts as functional.
Data set [1] deals with Mus musculus. The experiment in a line: Toxicity in human A2780 cells xenografted SCID mouse assessed as induction of body weight loss at 5 mg/kg, po bid for 5 days. It counts as organism-based. On the set-up: dose 5 mg/kg, route oral. The note with it: in vivo, 120 h.
Data set [2] deals with Mus musculus. The experiment in a line: Toxicity in human A2780 cells xenografted SCID mouse assessed as mortality at 5 mg/kg, po bid for 5 days. Format: organism-based. Further details: dose 5 mg/kg, route oral. The note with it: in vivo, 120 h.
The test system of data set [3] is A2780. The experiment in a line: Antitumor activity against human A2780 cells xenografted in SCID mouse assessed as tumor volume ratio at 5 mg/kg, po bid for 5 days relative to untreated control. Format: functional. (Xenograft models place foreign cells or tissue in a host animal.)
Data set [4] concerns Mus musculus. The experiment in a line: Toxicity in human A2780 cells xenografted SCID mouse assessed as mortality at 0.625 mg/kg, po bid for 5 days. Format: organism-based. Further details: dose 0.625 mg/kg, route oral. As to conditions: in vivo, 120 h.
A short description of data set [5]: Growth inhibition of human HCT116 cells. The note with it: HCT-116. Format: functional.
For data set [6], the system named is A2780. Description: Antitumor activity against human A2780 cells xenografted in SCID mouse assessed as tumor volume ratio at 0.625 mg/kg, po bid for 5 days relative to untreated control. It counts as functional.
Data set [7] deals with T1, Kinesin-like protein KIF11 (Homo sapiens, UniProt P52732).
T1 sequence (P52732 whole entry): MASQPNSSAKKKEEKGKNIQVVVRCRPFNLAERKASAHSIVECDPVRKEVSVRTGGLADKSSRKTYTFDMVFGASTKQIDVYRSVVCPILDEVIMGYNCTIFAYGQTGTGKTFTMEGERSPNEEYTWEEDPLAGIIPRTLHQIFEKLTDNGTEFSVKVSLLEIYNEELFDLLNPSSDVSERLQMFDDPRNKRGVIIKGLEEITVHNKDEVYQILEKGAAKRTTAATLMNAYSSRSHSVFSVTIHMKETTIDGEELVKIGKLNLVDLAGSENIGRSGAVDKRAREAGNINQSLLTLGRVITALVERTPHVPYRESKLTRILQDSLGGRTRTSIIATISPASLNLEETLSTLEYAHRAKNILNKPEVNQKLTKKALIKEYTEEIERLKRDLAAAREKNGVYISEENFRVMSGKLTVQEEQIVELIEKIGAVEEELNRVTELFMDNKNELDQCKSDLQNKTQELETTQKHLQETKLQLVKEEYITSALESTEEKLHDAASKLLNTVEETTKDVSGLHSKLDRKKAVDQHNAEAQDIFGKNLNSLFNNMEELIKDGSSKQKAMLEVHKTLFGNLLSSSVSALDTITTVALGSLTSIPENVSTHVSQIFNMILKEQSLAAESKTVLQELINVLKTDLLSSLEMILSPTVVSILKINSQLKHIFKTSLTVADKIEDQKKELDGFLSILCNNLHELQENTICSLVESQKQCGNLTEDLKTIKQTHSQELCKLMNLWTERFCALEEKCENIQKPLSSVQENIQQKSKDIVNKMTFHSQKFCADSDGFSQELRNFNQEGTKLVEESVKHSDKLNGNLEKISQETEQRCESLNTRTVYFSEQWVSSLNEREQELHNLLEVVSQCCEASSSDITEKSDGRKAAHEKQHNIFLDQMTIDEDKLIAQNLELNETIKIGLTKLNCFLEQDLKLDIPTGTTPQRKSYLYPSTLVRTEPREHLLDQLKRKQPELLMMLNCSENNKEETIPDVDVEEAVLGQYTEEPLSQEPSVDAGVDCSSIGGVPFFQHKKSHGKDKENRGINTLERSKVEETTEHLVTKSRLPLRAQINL
Description: Inhibition of Eg5 (unknown origin).

The test system of data set [8] is Mus musculus. Description: Toxicity in human A2780 cells xenografted SCID mouse assessed as induction of body weight loss at 0.625 mg/kg, po bid for 5 days. Format: organism-based. Further details: dose 0.625 mg/kg, route oral. The note with it: in vivo, 120 h.
The subject of data set [9] is A2780. Description: Antitumor activity against human A2780 cells xenografted in SCID mouse assessed as reduction in tumor volume dosed orally twice daily for 5 days relative to untreated control. Format: functional, organism-based.
For data set [10], the system named is Mus musculus. Description: Toxicity in human A2780 cells xenografted SCID mouse assessed as induction of body weight loss at 100 mg/kg, po bid for 5 days. Format: organism-based. Further details: dose 100 mg/kg, route oral. As to conditions: in vivo, 120 h.
Data set [11] deals with Mus musculus. The experiment in a line: Toxicity in human A2780 cells xenografted SCID mouse assessed as mortality at 100 mg/kg, po bid for 5 days. It counts as organism-based. Further details: dose 100 mg/kg, route oral. As to conditions: in vivo, 120 h.
The test system of data set [12] is A2780. The experiment in a line: Antitumor activity against human A2780 cells xenografted in SCID mouse assessed as tumor volume ratio at 100 mg/kg, po bid for 5 days relative to untreated control. Format: functional.
The nature of data set [13]: Intrinsic clearance in mouse liver microsomes. As to conditions: read-out: CLH (converted). Format: ADME. A general note: Liver microsomes are vesicles of endoplasmic reticulum, rich in cytochrome P450 enzymes.
Data set [14] concerns Mus musculus. Description: Toxicity in human A2780 cells xenografted SCID mouse assessed as mortality at 10 mg/kg, po bid for 5 days. Format: organism-based. Further details: dose 10 mg/kg, route oral. As to conditions: in vivo, 120 h.
Data set [15] has as its system A2780. The experiment in a line: Antitumor activity against human A2780 cells xenografted in SCID mouse assessed as tumor volume ratio at 2.5 mg/kg, po bid for 5 days relative to untreated control. Format: functional.
The nature of data set [16]: Oral absorption in mouse. Format: ADME, organism-based. The note with it: in vivo.
For data set [17], the system named is Mus musculus. Description: Toxicity in human A2780 cells xenografted SCID mouse assessed as mortality at 2.5 mg/kg, po bid for 5 days. Format: organism-based. On the set-up: dose 2.5 mg/kg, route oral. The note with it: in vivo, 120 h.
The subject of data set [18] is A2780. Description: Antitumor activity against human A2780 cells xenografted in SCID mouse assessed as tumor volume ratio at 10 mg/kg, po bid for 5 days relative to untreated control. Format: functional.
Data set [19] can be described thus: Therapeutic index, ratio of MTD in human A2780 cells xenografted SCID mouse to ED50 for human A2780 cells xenografted in SCID mouse. Format: cell-based. As to conditions: in vivo, read-out: TI.
For data set [20], the system named is Mus musculus. The experiment in a line: Toxicity in human A2780 cells xenografted SCID mouse assessed as induction of body weight loss at 2.5 mg/kg, po bid for 5 days. Format: organism-based. Further details: dose 2.5 mg/kg, route oral. As to conditions: in vivo, 120 h.
The test system of data set [21] is Mus musculus. Description: Toxicity in human A2780 cells xenografted SCID mouse assessed as induction of body weight loss at 10 mg/kg, po bid for 5 days. Format: organism-based. On the set-up: dose 10 mg/kg, route oral. As to conditions: in vivo, 120 h.

As for `CC(=O)N1N=C(N)SC1(C)c1ccccc1` (stereo not given), the MI20 in the data set with HCT-116 is listed as above 10000 nmol/L.

`CCC(=O)N1N=C(NC(=O)C(C)(C)C)SC1(CCNS(C)(=O)=O)c1ccccc1` (single isomer, unassigned; (-)) [listing 1 of 2 here]: the Activity result in the data set with Mus musculus [1], in the data set with Mus musculus [2], in the data set with Mus musculus [4] and in the data set on Mus musculus [8] was “Non-toxic” throughout. Further, the values for the T/C in the data set on A2780 [3] and in the data set with A2780 [6] were 0.08 and 0.5, respectively. Also, in the data set with HCT-116, the MI20 was determined as 55 nmol/L. Further, the GI50 in data set [5] was found to be 560 nM. The IC50 in data set [7] worked out at 64 nM.

With `CC(C)C(=O)N1N=C(NC(=O)C(C)(C)C)SC1(CCNS(C)(=O)=O)c1ccccc1` (single isomer, unassigned; (-)) [listing 1 of 2 here], in the data set on A2780 [9], the TGI result was “Dose-dependent effect”.

Take `CC(=O)NC1=NN(C(C)=O)C(C)(c2ccccc2)S1` (stereo not given): the Activity result in the data set with Mus musculus [10] and in the data set on Mus musculus [11] was “Non-toxic” throughout. The MI20 with HCT-116 came out at 1100 nmol/L. Growth in data set [5] was halved (GI50) at 1000 nM. Also, the T/C in the data set with A2780 [12] is 0.18.

Turning to `CC(C)(C)C(=O)NC1=NN(C(=O)C(C)(C)C)C(CCNS(C)(=O)=O)(c2ccccc2)S1` (stereo not given), in data set [13], the CLint scaled is 32.5 mL/min/kg. In the data set with HCT-116, this compound gave an MI20 of 71 nmol/L. Also, the GI50 in data set [5] amounted to 63 nM. The IC50 in data set [7] was found to be 120 nM.

For `CC(C)C(=O)N1N=C(NC(=O)C(C)(C)C)SC1(CCNS(C)(=O)=O)c1ccccc1` (single isomer, unassigned; (-)) [listing 2 of 2 here], the Activity result with Mus musculus [14], with Mus musculus [17], with Mus musculus [20] and in the data set on Mus musculus [21] was “Non-toxic” in each case. Also, the T/C in the data set on A2780 [15] was determined as 0.5; in the data set on A2780 [18], 0.27. This compound displayed a Fa in [16] of 62%. In addition, the MI20 in the data set on HCT-116 is on record as 40 nmol/L. The compound also registered a GI50 in data set [5] of 63 nM. Besides, the selectivity ratio in data set [19] turned out to be 8. Half-maximal inhibition in data set [7] (IC50) required 48 nM.

In the data set on HCT-116, `CC(C)(C)C(=O)NC1=NN(C(=O)C(C)(C)C)C(CS(C)(=O)=O)(c2ccccc2)S1` (stereo not given) displayed an MI20 above 10000 nmol/L.

Regarding `CC(C)C(=O)N1N=C(NC(=O)C(C)(C)C)SC1(CCNS(C)(=O)=O)c1ccccc1` (racemic), in [13], the CLint scaled was 14.8 mL/min/kg. Besides, the MI20 with HCT-116 is reported as 114 nmol/L. In [7], 110 nM corresponded to half-maximal inhibition (IC50).

Take `CCC(=O)N1N=C(NC(=O)C(C)(C)C)SC1(CCNS(C)(=O)=O)c1ccccc1` (single isomer, unassigned; (-)) [listing 2 of 2 here]: in the data set with A2780 [9], the TGI result was “Dose-dependent effect”.

`CC(C)(C)C(=O)NC1=NN(C(=O)C(C)(C)C)C(CC#N)(c2ccccc2)S1` (stereo not given) had an MI20 in the data set on HCT-116 above 10000 nmol/L.

Turning to `CCC(=O)N1N=C(NC(=O)C(C)(C)C)SC1(CCNS(C)(=O)=O)c1ccccc1` (racemic), in [13], the CLint scaled is 14.8 mL/min/kg. In the data set with HCT-116, this compound yielded an MI20 of 114 nmol/L. The compound also returned an IC50 in [7] of 111 nM.

As to `CCC(=O)N1N=C(NC(=O)C(C)(C)C)SC1(CCNS(C)(=O)=O)c1ccccc1` (stereo in doubt; (+)-12a), the MI20 in the data set on HCT-116 is recorded as above 10000 nmol/L.

Regarding `CC(C)C(=O)NC1=NN(C(=O)C(C)C)C(C)(c2ccccc2)S1` (stereo not given), the MI20 with HCT-116 is given as 460 nmol/L. The GI50 in [5] was 550 nM.

Take `CC(C)CC(=O)NC1=NN(C(=O)CC(C)C)C(C)(c2ccccc2)S1` (stereo not given): the MI20 with HCT-116 is recorded as 170 nmol/L. In addition, in data set [5], the GI50 amounted to 190 nM. In addition, the IC50 in [7] was determined as 520 nM.

Turning to `CC(=O)NCC1(c2ccccc2)SC(NC(=O)C(C)(C)C)=NN1C(=O)C(C)(C)C` (stereo not given), the MI20 with HCT-116 amounted to 2200 nmol/L.

Regarding `CC(C)(C)C(=O)NC1=NN(C(=O)C(C)(C)C)C(CNS(C)(=O)=O)(c2ccccc2)S1` (stereo not given), the MI20 with HCT-116 was 16 nmol/L. Besides, it took 17 nM to inhibit growth in data set [5] by half (GI50). Moreover, the IC50 in [7] was 44 nM.

In the data set with HCT-116, `CCC(=O)NC1=NN(C(=O)CC)C(C)(c2ccccc2)S1` (stereo not given) had an MI20 of 1700 nmol/L.

In the case of `CC1(c2ccccc2)SC(NC(=O)c2ccccc2)=NN1C(=O)c1ccccc1` (stereo not given), the MI20 with HCT-116 is above 10000 nmol/L.

On to `COCC1(c2ccccc2)SC(NC(=O)C(C)(C)C)=NN1C(=O)C(C)(C)C` (stereo not given), for which the MI20 in the data set on HCT-116 worked out at 430 nmol/L. In data set [5], this compound came in with a GI50 of 560 nM.

The compound `CC(C)C(=O)N1N=C(NC(=O)C(C)(C)C)SC1(CCNS(C)(=O)=O)c1ccccc1` (single isomer, unassigned; (+)) had an MI20 in the data set with HCT-116 above 10000 nmol/L.

What is called GI50 is the concentration at which growth is held to half of that of the control. High values mean lower sensitivity of the cells, low ones greater sensitivity of the cells. Usually IC50 stands for the midpoint of a concentration-inhibition curve. Read a high IC50 as weaker potency in that assay.
